{
  "source": "patent US20150051387A1",
  "about": "“WATER SOLUBLE PLATINUM COMPLEXES FOR TUMOR TREATMENT AND PROCESS OF PREPARING SAME” (GUDUI BIOPHARMA TECHNOLOGY INC., priority 2011, published 2015)",
  "key": {"L1210 tumor cells": {"tested_on": "L1210 tumor cells", "assay": "Antitumor efficacy in L1210 leukemia-bearing CDF1 mice (Experiment-2)", "format": "in vivo", "settings": "for Weight Changes: first day to seventh day", "procedure": "In the following test, antitumor efficacy studies were performed using 8-9 weeks old female CDF1 mice, the average weight of the animal is 20-25 grams. L1210 tumor cells (about 10^5 cells per mouse) were inoculated intraperitoneally. The water-soluble platinum complexes were used to treat the tumor-bearing animals and the efficacy was compared compared with the clinical platinum antitumor drugs. […] Drugs were administered intraperitoneally on day 1 and day 4 after tumor cell transplantation. The number of experimental animals in each group was 6.\nThe experimental animals were purchased from Vital River Laboratory Animal Technology Co. Ltd., Tumor cells L1210-leukemia cells were purchased from Shanghai An Yan Commercial Trade Co. Ltd.\nThe increase in life span (ILS) is calculated as follows:\nWherein, St=the weighted median survival time of treated animals; Su=the weighted median survival time of untreated animals"}, "[1]": {"assay": "Solubility in water at room temperature (Experiment-1)"}, "[2]": {"settings": "1.25 mg/Kg i.p. day 1 and day 4"}},
  "data": [
    {"compound": "cis-[trans-(1R,2R)-diamino cyclohexane] Pt (II) (1-O-D-glucoside-propane-3-chloro-3,3-dicarboxylate) [Example 1]", "values": [
      {"measurement": "ILS", "setting": "L1210 tumor cells; 50 mg/Kg i.p. day 1 and day 4", "result": ">425", "unit": "%"},
      {"measurement": "Survival Animals on Day 42", "setting": "L1210 tumor cells; 50 mg/Kg i.p. day 1 and day 4", "result": "6/6"},
      {"measurement": "Weight Changes", "setting": "L1210 tumor cells; 50 mg/Kg i.p. day 1 and day 4", "result": "+1.1 g"},
      {"measurement": "ILS", "setting": "L1210 tumor cells; 100 mg/Kg i.p. day 1 and day 4", "result": ">425", "unit": "%"},
      {"measurement": "Survival Animals on Day 42", "setting": "L1210 tumor cells; 100 mg/Kg i.p. day 1 and day 4", "result": "6/6"},
      {"measurement": "Weight Changes", "setting": "L1210 tumor cells; 100 mg/Kg i.p. day 1 and day 4", "result": "+0 g"},
      {"measurement": "ILS", "setting": "L1210 tumor cells; 200 mg/Kg i.p. day 1 and day 4", "result": ">425", "unit": "%"},
      {"measurement": "Survival Animals on Day 42", "setting": "L1210 tumor cells; 200 mg/Kg i.p. day 1 and day 4", "result": "6/6"},
      {"measurement": "Weight Changes", "setting": "L1210 tumor cells; 200 mg/Kg i.p. day 1 and day 4", "result": -0.4, "unit": "g"}
    ]},
    {"compound": "N.N.O=C([O-])C1(C(=O)[O-])CCC1.[Pt+2]", "note": "[Carboplatin, carboplatin]", "values": [
      {"measurement": "Survival Animals on Day 42", "setting": "L1210 tumor cells; 24 mg/Kg i.p. day 1 and day 4", "result": "0/6"},
      {"measurement": "Weight Changes", "setting": "L1210 tumor cells; 24 mg/Kg i.p. day 1 and day 4", "result": "+0.6 g"},
      {"measurement": "Survival Animals on Day 42", "setting": "L1210 tumor cells; 40 mg/Kg i.p. day 1 and day 4", "result": "0/6"},
      {"measurement": "Weight Changes", "setting": "L1210 tumor cells; 40 mg/Kg i.p. day 1 and day 4", "result": -0.4, "unit": "g"},
      {"measurement": "Survival Animals on Day 42", "setting": "L1210 tumor cells; 80 mg/Kg i.p. day 1 and day 4", "result": "1/6"},
      {"measurement": "Weight Changes", "setting": "L1210 tumor cells; 80 mg/Kg i.p. day 1 and day 4", "result": -1.2, "unit": "g"},
      {"measurement": "solubility", "setting": "[1]", "result": 16.6, "unit": "mg/1 mL H2O"}
    ]},
    {"compound": "N.N.[Cl][Pt][Cl]", "note": "[Cisplatin, cisplatin]", "values": [
      {"measurement": "Survival Animals on Day 42", "setting": "L1210 tumor cells; [2]", "result": "0/6"},
      {"measurement": "Weight Changes", "setting": "L1210 tumor cells; [2]", "result": "+1.1 g"},
      {"measurement": "Survival Animals on Day 42", "setting": "L1210 tumor cells; 2.5 mg/Kg i.p. day 1 and day 4", "result": "1/6"},
      {"measurement": "Weight Changes", "setting": "L1210 tumor cells; 2.5 mg/Kg i.p. day 1 and day 4", "result": -0.6, "unit": "g"},
      {"measurement": "Survival Animals on Day 42", "setting": "L1210 tumor cells; 5.0 mg/Kg i.p. day 1 and day 4", "result": "3/6"},
      {"measurement": "Weight Changes", "setting": "L1210 tumor cells; 5.0 mg/Kg i.p. day 1 and day 4", "result": -2.2, "unit": "g"}
    ]}
  ]
}
